Like-named read-outs stand apart in the source and are kept apart here.

In one test the test system is MRSA. Kind of test: Enhancing activity against various antimicrobial agents by broth microdilution method (MIC). The test is classed as cell-based, Staphylococcus aureus. Conditions: for Ratio (−/+stemphone C) of MIC: MIC alone / MIC with stemphone C 16 μg/ml, fold enhancement; for MIC: Staphylococcus aureus, MRSA, read-out: MIC, antibacterial agent alone (−); for MIC, +stemphone C: in combination with stemphone C 16 μg/ml. A general note: Broth dilution looks for growth in wells or tubes with falling amounts of substance.

Test [1] concerns Bacillus subtilis KB211 (PCI 219). In words: Antimicrobial action, paper disc method. The test is classed as cell-based. Conditions: 5 μg/disc, disc diameter 6 mm, 37° C., 24 hours.
For test [2], the system named is Stapylococcus aureus KB210 (ATCC6538p). In words: Antimicrobial action, paper disc method. Type of test: cell-based. Particulars: 5 μg/disc, disc diameter 6 mm, 37° C., 24 hours.
Test [3] has as its system Micrococcus luteus KB212 (ATCC9341). Kind of test: Antimicrobial action, paper disc method. Particulars: 5 μg/disc, disc diameter 6 mm, 37° C., 24 hours. Type of test: cell-based.
Test [4] relates to Acholeplasma laidlawii KB174. In words: Antimicrobial action, paper disc method. Type of test: cell-based. Conditions: 5 μg/disc, disc diameter 6 mm, 37° C., 24 hours.
Test [5] has as its system methicillin resistant Staphylococcus aureus K24. In words: Enhancing effect for activity of imipenem by paper disk method. Conditions: for diameter of inhibition zone in the presence of imipenem / diameter of inhibition zone, stemphone alone: 5 μg disc, 37° C., 20 hours; for diameter of inhibition zone in the presence of imipenem: MHA medium with imipenem 10 μg/ml; for diameter of inhibition zone, stemphone alone: MHA medium without imipenem.

[6] abbreviates: without stemphone C, 37° C., 20 hours.

For orientation: MIC means the lowest concentration found to suppress growth. For `CN[C@H](CC(C)C)C(=O)N[C@H]1C(=O)N[C@@H](CC(N)=O)C(=O)N[C@H]2C(=O)N[C@H]3C(=O)N[C@H](C(=O)N[C@H](C(=O)O)c4cc(O)cc(O)c4-c4cc3ccc4O)[C@H](O)c3ccc(c(Cl)c3)Oc3cc2cc(c3O[C@@H]2O[C@H](CO)[C@@H](O)[C@H](O)[C@H]2O[C@H]2C[C@](C)(N)[C@H](O)[C@H](C)O2)Oc2ccc(cc2Cl)[C@H]1O` [vancomycin], the “Ratio (−/+stemphone C) of MIC” value with MRSA amounted to 1. Also, the MIC in the test on MRSA (20 h) was found to be 0.5 µg/mL. Further, the “MIC, +stemphone C” value in the test on MRSA (37° C., 20 hours) was 0.5 µg/mL.

The term zone of inhibition denotes the size of the clear area around the sample on an inoculated plate. Read a low zone of inhibition as a weaker effect on the plate. With `C/C=C(\C)C(OC(C)=O)C(C)C1=CC(=O)C2=C(OC3(C)CCC4OC(C(C)(C)O)CCC4(C)C3C2)C1=O` (centres unmarked) [Stemphone C], the “effect of stemphone C itself on growth of test organism” value with MRSA (final concentration 16 μg/ml) is listed as “did not affect growth”. Also, the zone of inhibition at 5 µg/disc in test [1] is 9 mm; in test [2], 8 mm; in test [3] it was 14 mm; in test [4], 9 mm. Also, in test [5], the “diameter of inhibition zone in the presence of imipenem” value is recorded as 20 mm. Further, the “diameter of inhibition zone, stemphone alone” value in test [5] is “not observed”. Further, the “enhancing activity for imipenem” value in test [5] (paper disk method, in words) was “strong enhancing activity”.

As to `C[C@@H](O)[C@H]1C(=O)N2C(C(=O)O)=C(SCCN=CN)C[C@H]12` [imipenem], the “Ratio (−/+stemphone C) of MIC” value in the test on MRSA was found to be 512. Moreover, the MIC in the test on MRSA (setting [6]) came out at 16 µg/mL. Moreover, in the test with MRSA (37° C., 20 hours), the “MIC, +stemphone C” value came to 0.03 µg/mL.

In the case of `C/C=C(\C)C(OC(C)=O)C(C)C1=CC(=O)C2=C(OC3(C)CCC4OC(C(C)(C)O)CC(O)C4(C)C3C2O)C1=O` (centres unmarked) [Stemphone B], the zone of inhibition at 5 µg/disc in test [1] came out at 10 mm; in test [2], 8 mm; in test [3], 14 mm; in test [4], 10 mm. In addition, the “diameter of inhibition zone in the presence of imipenem” value in test [5] was 15 mm. Also, the “diameter of inhibition zone, stemphone alone” value in test [5] is “not observed”.

On to `CN(C)[C@@H]1C(O)=C(C(N)=O)C(=O)[C@@]2(O)C(O)=C3C(=O)c4c(O)cccc4[C@@](C)(O)[C@H]3C[C@@H]12` [tetracycline], for which the “Ratio (−/+stemphone C) of MIC” value with MRSA was 1. Further, the MIC in the test on MRSA (setting [6]) worked out at 32 µg/mL. For the same molecule, in the test on MRSA (37° C., 20 hours), the “MIC, +stemphone C” value came to 32 µg/mL.

Consider `Cc1onc(-c2ccccc2Cl)c1C(=O)N[C@@H]1C(=O)N2[C@@H]1SC(C)(C)[C@@H]2C(=O)O` [cloxacillin], for which, in the test on MRSA, the “Ratio (−/+stemphone C) of MIC” value amounted to 512. Further, the MIC in the test on MRSA (setting [6]) is 512 µg/mL. Further, the “MIC, +stemphone C” value with MRSA (37° C., 20 hours) stood at 1 µg/mL.

Turning to `[H]/N=C(/N)N[C@H]1[C@H](O)[C@@H](O)[C@H](O[C@@H]2O[C@@H](C)[C@](O)(C=O)[C@H]2O[C@@H]2O[C@@H](CO)[C@H](O)[C@@H](O)[C@@H]2NC)[C@@H](N/C(N)=N\[H])[C@@H]1O` [streptomycin], the “Ratio (−/+stemphone C) of MIC” value in the test on MRSA is on record as 4. The MIC in the test on MRSA (setting [6]) was 2 µg/mL. In addition, the “MIC, +stemphone C” value with MRSA (37° C., 20 hours) is 0.5 µg/mL.

Take `Cc1nnc(SCC2=C(C(=O)O)N3C(=O)[C@@H](NC(=O)Cn4cnnn4)[C@H]3SC2)s1` [cefazolin]: the “Ratio (−/+stemphone C) of MIC” value in the test with MRSA is recorded as 16. Moreover, the MIC in the test with MRSA (setting [6]) was 64 µg/mL. For the same molecule, the “MIC, +stemphone C” value in the test on MRSA (37° C., 20 hours) was found to be 4 µg/mL.

The values above are taken from patent US7794991B2, “Stemphones and production thereof” (The Kitasato Institute, priority 2005, dated 2010).
